Experimental data from PMC6352943, “Novel pyrazolo[3,4-d]pyrimidines: design, synthesis, anticancer activity, dual EGFR/ErbB2 receptor tyrosine kinases inhibitory activity, effects on cell cycle profile and caspase-3-mediated apoptosis” (Journal of Enzyme Inhibition and Medicinal Chemistry, 2019).

What was measured:
Assay in all cases: NCI 60 cell line single dose screen (SRB)
Assay type in all cases: cell-based
HOP-92 = conditions: Homo sapiens; HOP-92 (non-small cell lung cancer), single dose 10^−5 M, 48 h; read-out: Growth inhibition percentage
Procedure, shortened: (§1)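 Cells were plated and grown 24 h at 37 °C, 5% CO2 before compound addition from DMSO stock, then exposed 48 h. Adherent cells were fixed with cold TCA (final 10%) and suspension cells with 16% TCA. SRB-stained protein was read at 515 nm and percent growth was calculated against time-zero and untreated plates.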

DU-145 = conditions: Homo sapiens; DU-145 (prostate cancer), single dose 10^−5 M, 48 h; read-out: Growth inhibition percentage
Procedure, shortened: as §1

A498 = conditions: Homo sapiens; A498 (renal cancer), single dose 10^−5 M, 48 h; read-out: Growth inhibition percentage
Procedure, shortened: as §1

SR = conditions: Homo sapiens; SR (leukemia), single dose 10^−5 M, 48 h; read-out: Growth inhibition percentage
Procedure, shortened: as §1

M14 = conditions: Homo sapiens; M14 (melanoma), single dose 10^−5 M, 48 h; read-out: Growth inhibition percentage
Procedure, shortened: as §1

HT29 = conditions: Homo sapiens, HT-29; HT29 (colon cancer), single dose 10^−5 M, 48 h; read-out: Growth inhibition percentage
Procedure, shortened: as §1

HL-60(TB) = conditions: Homo sapiens; HL-60(TB) (leukemia), single dose 10^−5 M, 48 h; read-out: Growth inhibition percentage
Procedure, shortened: as §1

TK-10 = conditions: Homo sapiens; TK-10 (renal cancer), single dose 10^−5 M, 48 h; read-out: Growth inhibition percentage
Procedure, shortened: as §1

SW-620 = conditions: Homo sapiens; SW-620 (colon cancer), single dose 10^−5 M, 48 h; read-out: Growth inhibition percentage
Procedure, shortened: as §1

HOP-62 = conditions: Homo sapiens; HOP-62 (non-small cell lung cancer), single dose 10^−5 M, 48 h; read-out: Growth inhibition percentage
Procedure, shortened: as §1

SF-295 = conditions: Homo sapiens; SF-295 (CNS cancer), single dose 10^−5 M, 48 h; read-out: Growth inhibition percentage
Procedure, shortened: as §1

MDA-MB-435 = conditions: Homo sapiens; MDA-MB-435 (melanoma), single dose 10^−5 M, 48 h; read-out: Growth inhibition percentage
Procedure, shortened: as §1

U251 = conditions: Homo sapiens, U-251; U251 (CNS cancer), single dose 10^−5 M, 48 h; read-out: Growth inhibition percentage
Procedure, shortened: as §1

SK-OV-3 = conditions: Homo sapiens; SK-OV-3 (ovarian cancer), single dose 10^−5 M, 48 h; read-out: Growth inhibition percentage
Procedure, shortened: as §1

HCT-15 = conditions: Homo sapiens; HCT-15 (colon cancer), single dose 10^−5 M, 48 h; read-out: Growth inhibition percentage
Procedure, shortened: as §1

MALME-3M = conditions: Homo sapiens; MALME-3M (melanoma), single dose 10^−5 M, 48 h; read-out: Growth inhibition percentage
Procedure, shortened: as §1

MDA-MB-468 = conditions: Homo sapiens; MDA-MB-468 (breast cancer), single dose 10^−5 M, 48 h; read-out: Growth inhibition percentage
Procedure, shortened: as §1

IGROV1 = conditions: Homo sapiens, IGROV-1; IGROV1 (ovarian cancer), single dose 10^−5 M, 48 h; read-out: Growth inhibition percentage
Procedure, shortened: as §1

SF-593 = conditions: Homo sapiens, SF-593 (CNS cancer), single dose 10^−5 M, 48 h, read-out: Growth inhibition percentage
Procedure, shortened: as §1

NCI/ADR-RES = conditions: Homo sapiens; NCI/ADR-RES (ovarian cancer), single dose 10^−5 M, 48 h; read-out: Growth inhibition percentage
Procedure, shortened: as §1

HS 578T = conditions: Homo sapiens; HS 578T (breast cancer), single dose 10^−5 M, 48 h; read-out: Growth inhibition percentage
Procedure, shortened: as §1

| SMILES | inhibition at 10 µM (HOP-92) [%] | inhibition at 10 µM (DU-145) [%] | inhibition at 10 µM (A498) [%] | inhibition at 10 µM (SR) [%] | inhibition at 10 µM (M14) [%] | inhibition at 10 µM (HT29) [%] | inhibition at 10 µM (HL-60(TB)) [%] | inhibition at 10 µM (TK-10) [%] | inhibition at 10 µM (SW-620) [%] | inhibition at 10 µM (HOP-62) [%] | inhibition at 10 µM (SF-295) [%] | inhibition at 10 µM (MDA-MB-435) [%] | inhibition at 10 µM (U251) [%] | inhibition at 10 µM (SK-OV-3) [%] | inhibition at 10 µM (HCT-15) [%] | inhibition at 10 µM (MALME-3M) [%] | inhibition at 10 µM (MDA-MB-468) [%] | inhibition at 10 µM (IGROV1) [%] | inhibition at 10 µM (SF-593) [%] | inhibition at 10 µM (NCI/ADR-RES) [%] | further results |
| --- | --- | --- | --- | --- | --- | --- | --- | --- | --- | --- | --- | --- | --- | --- | --- | --- | --- | --- | --- | --- | --- |
| Cc1nn(-c2ccc(F)cc2)c2ncnc(N3CCN(c4ccc(Cl)cc4)CC3)c12 [Compound 8c, 4–(4-(4-Chlorophenyl)piperazin-1-yl)-1–(4-fluorophenyl)-3-methyl-1H-pyrazolo[3,4-d]pyrimidine] | 15.9 | -5.88 | 9.66 | 11 | -0.94 | 5.97 | 25.5 | -30.9 | -3.16 | 4.05 | -0.93 | -14.5 | -0.06 | 12.6 | -8.49 | 4.22 | -3.83 | 25.6 | 3.89 | 6.62 | inhibition at 10 µM (HS 578T): 3.74% |
| COc1ccc(N2CCN(c3ncnc4c3c(C)nn4-c3ccc(F)cc3)CC2)cc1 [Compound 8d, 1–(4-Fluorophenyl)-4–(4-(4-methoxyphenyl)piperazin-1-yl)-3-methyl-1H-pyrazolo[3,4-d]pyrimidine] | 4.73 | -11.2 | -0.85 | 8.97 | 3.95 | -1.26 | 11.8 | -48 | -0.63 | 1.51 | -2.4 | -6.1 | -2.5 | 3.69 | -5.55 | 5.14 | 0.37 | 9.45 | 8.43 | -3.7 | inhibition at 10 µM (HS 578T): 5.99% |
| Cc1nn(-c2ccc(F)cc2)c2ncnc(NN)c12 [Compound 9, 1–(4-Fluorophenyl)-4-hydrazinyl-3-methyl-1H-pyrazolo[3,4-d]-pyrimidine] | 13.4 | -0.84 | 1.48 | 20.2 | -8 | 1.62 | 11.8 | -51.2 | -8.79 | 4.27 | -3.92 | -9.22 | 9.85 | 7.98 | -5.82 | 19 | 18.5 | 23.5 | -0.7 | 3.79 | inhibition at 10 µM (HS 578T): -4.22% |
| COc1cc(C=NNc2ncnc3c2c(C)nn3-c2ccc(F)cc2)ccc1O [Compound 10b, 1–(4-Fluorophenyl)-4–(2-(4-hydroxy-3-methoxybenzylidene)-hydrazinyl)-3-methyl-1H-pyrazolo[3,4-d]pyrimidine] | 39.5 | 12.4 | -3.34 | 22.9 | -2.1 | 7.7 | 1.69 | 11.3 | -30.9 | -6.39 | -5.51 | 4.56 | 5.64 | 0.81 | 18.9 | -12.4 | 8.05 | 20.6 | 3.85 | 4.3 | inhibition at 10 µM (HS 578T): 0.89% |
| COc1cc(C=NNc2ncnc3c2c(C)nn3-c2ccc(F)cc2)cc(OC)c1OC [Compound 10c, 1–(4-Fluorophenyl)-3-methyl-4–(2-(3,4,5-trimethoxybenzylidene)-hydrazinyl)-1H-pyrazolo[3,4-d]pyrimidine] | 40.4 | -4.94 | 22 | 13.7 | 2.73 | 8.83 | -4.11 | -36.3 | -11.7 | 0.38 | -2.66 | -2.02 | 0.92 | 7.06 | -5.3 | 12.6 | -4.81 | 26.6 | 13.2 | -2.25 | inhibition at 10 µM (HS 578T): 13.9% |
